Source: patent publication US20030059797A1, “Animal model of and test for Alzheimer's disease” (priority 1999, published 2003)
Values joined by “and” are separate entries in the source; they are usually repeats but may differ in a detail not shown here. Identical values can stand only once.

Key:
tryptamine binding site = conditions: cited from earlier work; for binding to tryptamine site (in words): human cortical membrane preparation, Mousseau & Butterworth 1994
neuronal cell lines = conditions: Tanaka et al. 1998; cited from earlier work
[1] = tested on: human neuroblastoma SH SY5Y cell line; assay: Cultivation of SH SY5Y cells with TrpRS inhibitors; assay type: cell-based; conditions: for cell survival after cultivation with inhibitor: 50-100 μg/ml, 5 days, initial density 1×10^3 on 10-cm dishes
Description: The involvement of TrpRS inhibitors in neurofibrillary tangles formation was tested in the human neuroblastoma SH SY5Y cell line expressing tau. Tanaka et al., FEBS Lett. 426: 248-254 (1998). This cloned line comprises two morphologically distinct cell types: predominantly neuroblastic (bearing short neurites) and epithelial-like (lacking neurites). Biedler et al., Cancer Res. 33: 2643-2652 (1973). SH SY5Y cells were grown in 25 cm^2 flasks (TPP, Switzerland) in 5% CO2 at 37° C. in RPMI 1640 medium supplemented with 10% fetal calf serum, 100 u/ml penicillin, 100 μg/ml streptomycin, 0.25 μg/ml amphoterycin and 2 mM glutamine. The neuron/axon lines were isolated after seeding microscopically verified single […] cells.
Continuous treatment with lower concentrations of the inhibitors led to accumulation of large flattened, tightly substrate adherent epithelial-like cells lacking neurites, while the majority of neuroblasts died.
TrpRS was mainly localized in axons and to a less extent in the neuronal body and dendrites (wrs, FIG. 1e). […] In some sublines, however no neuroblasts were observed during 12 months cultivation without inhibitors (low panel, FIG. 1f).

SH SY5Y cells = assay: Tryptamine treatment of epithelial-enriched and neuron-axon SH SY5Y cells, staining and electron microscopy; assay type: cell-based, human; conditions: 20-100 μg/ml tryptamine for 6-60 days, electron microscopy
Description: To examine control epithelial cells, which were not pretreated with inhibitors, neuroblastic and epithelial-enriched cells were separated from one another by exploiting a marked difference in adhesive properties. Biedler et al., Cancer Res. 33: 2643-2652 (1973). The weakly adherent neuroblasts were washed out with trypsin. The selected epithelial-enriched and tryptamine-differentiated neuron-axon cells were treated with 20-100 μg/ml tryptamine for 6-60 days and then stained. […] (Mouse anti-human PHF-tau, clone AT8 against epitope containing phosphorylated Ser202 was obtained from Innogenetics (Ghent, Belgium).)
To test whether TrpRS and tau co-localize in neurofibrillary tangles, fluorescent double labeling with AT8 and anti-TrpRS was performed. In acute-treated cells, the proteins were co-localized both in I-NFT-like encircled nuclei (FIG. 2e, f, i, and j) and E-NFT-like manifestations (FIG. 2g). In the perikarya of the control pretreated or untreated epithelial cells, few if any such formations were labeled (FIG. 2h and FIG. 2k). The staining is specific. The staining was absent in the control specimens probed with secondary antibodies (FIG. 2l).
To test whether tryptamine-induced manifestations are associated with neurofilaments, the cells were prepared either as a suspension (FIG. 2m) or as a monolayer and then analyzed by electron microscopy. […]

TrpRS = assay: Western blot of TrpRS in detergent-insoluble fraction of treated cells; assay type: cell-based, human; conditions: 6C10/C9 blot
Description: The involvement of tau and TrpRS in tryptamine-induced phenotypes was tested in extracts of control and treated cells. Triton extraction was performed as follows: Cells were lysed in 0.1 M Hepes buffer, pH 6.9, 0.5% Triton X100, 1 mM MgCl2, 0.1 mM EDTA, 2 mM EGTA, 1 mM DTT, 1 mM PMSF, 0.4 mg/ml aprotinin, 0.1 mg/ml antipain, leupeptin, pepstatin, and hemastatin, 0.1 μM okadaic acid, 10 mM sodium ortovanadate, and 50 mM sodium fluoride for 20 min in situ at room temperature. The detergent-insoluble fraction was collected with scraper and washed in the same buffer excluding inhibitors of phosphatases. The detergent-insoluble fraction was then solubilized in SDS-sample buffer at 100° C. for 5 min, and spun. […]
In the Western blot, both human recombinant ˜54 kDa and bovine ˜60 and ˜40-42 kDa (well-characterized proteolytic fragments) TrpRS reacted with 6C10/C9 and polyclonal antibodies (FIG. 3b), while poorly with 9D7. The main form and an additional high molecular weight TrpRS were induced in detergent-insoluble cytoskeleton by tryptamine treatment (right panel, FIG. 3c), whereas no difference was detected between acute-treated and pretreated cells (left and middle panels, FIG. 3c) when total extracts were analyzed. In the cytoskeleton of both treated and control cells, TrpRS was detected at a lower molecular weight than the cytoplasmic TrpRS (FIG. 3c). […]

mice [2] = assay: Running on a narrow stick, tryptamine-treated mice; assay type: in vivo; conditions: individual mouse
Description: (§1) An Alzheimer's disease mouse model was obtained by using intravenous injections of male mice at 8 weeks or age- and sex-matched mice with 1-500 micrograms of tryptamine every second day for at least 2.5 weeks. In one embodiment, mice are injected with 50 micrograms of tryptamine for 4 months. However, the duration of treatment, intervals between injections and concentrations of tryptamine can be successfully varied. Control mice are injected with phosphate-buffered saline.
Behavioral tests with control and tryptamine-treated mice. Behavioral assays with control and tryptamine-treated mice included tests for movement or coordination, sense of balance, orientation, and loss of interest. The behavioral tests in which the tryptamine-treated mice were tested included (a) a test of stable sitting (following 3 months of treatment), and (b) a test of running on a narrow stick (following 3, 4 and 6 months of the treatment). […] As shown in the testing this behavior of mice is age-dependent. […] The data obtained regarding behavior of the control and tryptamine-treated mice are in good agreement with later signs of Alzheimer's disease compared with normal signs of aging (Source: Alzheimer's Disease: early warning signs and diagnostic resources. The Junior League of NYC, Inc, 1988).
The model mice were made to run on a white metallic 80 cm stick having a diameter of 1 cm stick and placed 30 cm over the surface of a platform. Data in TABLE I are: (a) lag time (time that the mice were sitting at one end of the stick before beginning to run); (b) run time; and (c) the % of the stick that the mice successfully completed.

mice [3] = assay: Stability (balance) on narrow 1-cm stick; assay type: in vivo
Description: FIG. 7 is a set of tables and graphs showing measurements of the treated mice's behavior. The control and tryptamine-treated model mice were put on a narrow 1-cm diameter metallic stick. The time that mice balanced on the stick was measured in seconds. 66% of control versus 10% of treated mice kept on the stick for more than 6 seconds in the first experiment and 66% of control versus 20% of treated were for more than 13 seconds in the second experiment. Thus, the model mice were 6.6 times less balanced or coordinated than control.
FIG. 7 is a set of tables and graphs showing measurements of the treated mice's stability The control and tryptamine-treated model mice were put on a narrow 1 cm diameter metallic stick. The time of their presence on the stick was measured in seconds. […] Thus, the model mice are 6.6 times less balanced than control.

mice [4] = assay: Brain histology of tryptamine-treated mice (Congo Red, Gallyas silver staining); assay type: in vivo; conditions: intravenous, every second day, at least 2.5 weeks of treatment
Description: as §1
Immunochemical assays with control and tryptamine-treated mice. Following tryptamine treatment, the brains of the treated model mice and the control untreated mice were routinely fixed; sectioned, stained and analyzed microscopically, using commonly used well-established methods. The mouse brains were examined for Alzheimer's-like manifestations.
These manifestations were not found in the control mice.
FIG. 5 is a set of micrographs showing Congo Red staining and birefringence of sagittal sections from brains of tryptamine-treated mice. […] FIG. 6 is a set of micrographs showing silver staining of Alzheimer's neurofibrillary changes in the brain sections of tryptamine-treated mice.

mice [5] = assay: Observation of health and behavior of tryptamine-treated mice; assay type: in vivo
Description: as §1
The tryptamine-treated mice appear to be healthy in comparison to the control mice. The treated mice are clean and fat.

## NCCc1c[nH]c2ccc(O)cc12 [5-hydroxytryptamine]
Tryptamine binding site; relative to tryptamine
  lower binding to tryptamine site than tryptamine: > 100

## COc1ccc2[nH]cc(CCN)c2c1 [5-methoxytryptamine]
Tryptamine binding site
  binding to tryptamine site (in words): higher binding to tryptamine site compared with 5-hydroxytryptamine

## CC(N)Cc1ccccc1 (stereo not shown) [amphetamine]
Tryptamine binding site
  binding to tryptamine site (in words): higher affinity for the (+)-stereo isomer compared with (−)-isomer

## C#CCN(C)[C@H](C)Cc1ccccc1 [deprenyl]
Tryptamine binding site
  binding to tryptamine site (in words): higher affinity for the (+)-stereo isomer compared with (−)-isomer

## C=C1[C@@H](O)[C@@H]2O[C@]3(CC[C@H](/C=C/[C@@H](C)[C@@H]4CC(C)=C[C@@]5(O[C@H](C[C@@](C)(O)C(=O)O)CC[C@H]5O)O4)O3)CC[C@H]2O[C@@H]1[C@@H](O)C[C@H](C)[C@H]1O[C@@]2(CCCCO2)CC[C@H]1C [okadaic acid]
Neuronal cell lines
  effect on tau and neurofibrillary tangles: results only in tau hyperphosphorylation, but not neurofibrillary tangles

## NCCc1c[nH]c2ccccc12 [tryptamine]
[1]
  cell survival after cultivation with inhibitor: all cells have died
[1]; SH SY5Y
  relative toxicity for neuroblasts and epithelial cells: more toxic for neuroblasts than for epithelial cells
[1]; continuous treatment with lower concentrations, then cultivation without inhibitors
  neurodifferentiation of epithelial cells: induces neurodifferentiation of the epithelial cells
SH SY5Y cells
  neurofibrillary tangles in treated cells: numerous neurofibrillary tangles were found
TrpRS
  expression of cytoskeleton TrpRS forms: induces high expression of cytoskeleton TrpRS forms
Mice [2]; 80 cm stick, 1 cm diameter
  Run time: 2 seconds and 0 seconds (7×) and 10 seconds and 17 seconds
Mice [2]; 80 cm stick, 1 cm diameter, time sitting at one end before beginning to run
  Lag time: 50 seconds and 47 seconds and 11 seconds and 17 seconds and 13 seconds and 40 seconds and 3 seconds (2×) and 9 seconds and 15 seconds
Mice [2]; % of the stick successfully completed
  % of the way: 40% and 0% (7×) and 20% and 50%
Mice [3]; first experiment, control 66%
  % of treated mice kept on the stick for more than 6 seconds: 10%
Mice [3]; second experiment, control 66%
  % of treated mice kept on the stick for more than 13 seconds: 20%
Mice [3]; treated versus control mice
  times less balanced than control: 6.6 times
Mice [4]
  Alzheimer's-like manifestations in brain sections: Senile plaques, neurofibrillary tangles, and neuropil threads and fibrils were detected
Mice [5]; four months of treatment
  toxic effect: do not show any toxic effect
Mice [5]; in contrast to control mice
  aggressive behavior: do not show aggressive behavior
Tryptamine binding site
  binding to tryptamine site (in words): most potent inhibitor

## N[C@@H](Cc1c[nH]c2ccccc12)C(=O)O [tryptophan]
Tryptamine binding site
  binding to tryptamine site (in words): dramatically lower binding to trypatmine site than tryptamine

## N[C@H](CO)Cc1c[nH]c2ccccc12 [tryptophanol]
[1]
  cell survival after cultivation with inhibitor: all cells have died
